Test results from ChEMBL document CHEMBL1201862, “PubChem BioAssay data set” (2004).
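Compound exposure: 48 hours, 5 concentrations, 96-well plates. Abbreviation: GI50, concentration required for 50% inhibition of growth.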 Active and inactive are the calls of the source. No stated cut-off is given here; in the data, active = GI50 up to about 1.1 µM and inactive = higher.

Columns and labels:
Assay in all cases: NCI-60 cell line screen, 48 h
786-0 = tested on: 786-0
A498 = tested on: A498
A549 = tested on: A549
ACHN = tested on: ACHN
CAKI-1 = tested on: CAKI-1
CCRF-CEM = tested on: CCRF-CEM
COLO 205 = tested on: COLO 205
DLD-1 = tested on: DLD-1
DMS-114 = tested on: DMS-114
DMS-273 = tested on: DMS-273
EKVX = tested on: EKVX
HCC 2998 = tested on: HCC 2998
HCT-116 = tested on: HCT-116
HCT-15 = tested on: HCT-15
HOP-18 = tested on: HOP-18
HOP-62 = tested on: HOP-62
HT-29 = tested on: HT-29
IGROV-1 = tested on: IGROV-1
K562 = tested on: K562
KM-20L2 = tested on: KM-20L2
KM12 = tested on: KM12
LOX IMVI = tested on: LOX IMVI
M14 = tested on: M14
M19-MEL = tested on: M19-MEL
Malme-3M = tested on: Malme-3M
NCI-H226 = tested on: NCI-H226
NCI-H23 = tested on: NCI-H23
NCI-H460 = tested on: NCI-H460
OVCAR-3 = tested on: OVCAR-3
OVCAR-4 = tested on: OVCAR-4
OVCAR-5 = tested on: OVCAR-5
OVCAR-8 = tested on: OVCAR-8
RPMI-8226 = tested on: RPMI-8226
RXF 631 = tested on: RXF 631
SF-268 = tested on: SF-268
SF-295 = tested on: SF-295
SF-539 = tested on: SF-539
SK-MEL-28 = tested on: SK-MEL-28
SK-MEL-2 = tested on: SK-MEL-2
SK-MEL-5 = tested on: SK-MEL-5
SK-OV-3 = tested on: SK-OV-3
SN12C = tested on: SN12C
SNB-19 = tested on: SNB-19
SNB-75 = tested on: SNB-75
SNB-78 = tested on: SNB-78
SW-620 = tested on: SW-620
TK-10 = tested on: TK-10
U-251 = tested on: U-251
UACC-257 = tested on: UACC-257
UACC-62 = tested on: UACC-62
UO-31 = tested on: UO-31
HOP-92 = tested on: HOP-92
LXFL 529 = tested on: LXFL 529
MOLT-4 = tested on: MOLT-4
NCI-H522 = tested on: NCI-H522
RXF 393 = tested on: RXF 393
XF498 = tested on: XF498

## Nc1nc(N)c(CCCCc2ccccc2)c(C=O)n1
786-0
  GI50: 15 µM (inactive)
A498
  GI50: > 100 µM (inactive)
A549
  GI50: 41.4 µM (inactive)
ACHN
  GI50: 22.5 µM (inactive)
CAKI-1
  GI50: 27.3 µM (inactive)
CCRF-CEM
  GI50: 10.6 µM (inactive)
COLO 205
  GI50: 31.8 µM (inactive)
DLD-1
  GI50: 20.1 µM (inactive)
DMS-114
  GI50: 15.9 µM (inactive)
DMS-273
  GI50: 17.2 µM (inactive)
EKVX
  GI50: 21 µM (inactive)
HCC 2998
  GI50: 26.5 µM (inactive)
HCT-116
  GI50: 13.1 µM (inactive)
HCT-15
  GI50: 14.7 µM
HOP-18
  GI50: 40.8 µM (inactive)
HOP-62
  GI50: > 100 µM (inactive)
HT-29
  GI50: 9.62 µM (inactive)
IGROV-1
  GI50: 17.8 µM (inactive)
K562
  GI50: 5.81 µM (inactive)
KM-20L2
  GI50: 30.6 µM (inactive)
KM12
  GI50: 15.9 µM (inactive)
LOX IMVI
  GI50: 14.8 µM (inactive)
M14
  GI50: 16.4 µM (inactive)
M19-MEL
  GI50: 14.8 µM (inactive)
Malme-3M
  GI50: 18.1 µM (inactive)
NCI-H226
  GI50: 19.4 µM (inactive)
NCI-H23
  GI50: 19 µM (inactive)
NCI-H460
  GI50: 42.1 µM (inactive)
OVCAR-3
  GI50: 14.3 µM (inactive)
OVCAR-4
  GI50: 23.9 µM (inactive)
OVCAR-5
  GI50: > 100 µM (inactive)
OVCAR-8
  GI50: 16.3 µM (inactive)
RPMI-8226
  GI50: 13.2 µM (inactive)
RXF 631
  GI50: 43.5 µM (inactive)
SF-268
  GI50: 18.8 µM (inactive)
SF-295
  GI50: 22 µM (inactive)
SF-539
  GI50: 18.9 µM (inactive)
SK-MEL-28
  GI50: 15.9 µM (inactive)
SK-MEL-2
  GI50: 20 µM (inactive)
SK-MEL-5
  GI50: 17 µM (inactive)
SK-OV-3
  GI50: 31.1 µM (inactive)
SN12C
  GI50: 19.1 µM (inactive)
SNB-19
  GI50: 16.1 µM (inactive)
SNB-75
  GI50: 12.7 µM (inactive)
SNB-78
  GI50: 22.9 µM (inactive)
SW-620
  GI50: 11.7 µM (inactive)
TK-10
  GI50: 27.6 µM (inactive)
U-251
  GI50: 22.9 µM (inactive)
UACC-257
  GI50: 13.6 µM (inactive)
UACC-62
  GI50: 15.2 µM (inactive)
UO-31
  GI50: 19.1 µM (inactive)

## O=c1[nH]nc2c3n[nH]c(=O)n3c3ccccc3n12
786-0
  GI50: > 100 µM (inactive)
A498
  GI50: 47.1 µM (inactive)
A549
  GI50: > 100 µM (inactive)
ACHN
  GI50: > 100 µM (inactive)
CAKI-1
  GI50: > 100 µM (inactive)
CCRF-CEM
  GI50: > 100 µM (inactive)
COLO 205
  GI50: > 100 µM (inactive)
DLD-1
  GI50: > 100 µM (inactive)
DMS-114
  GI50: > 100 µM (inactive)
DMS-273
  GI50: > 100 µM (inactive)
EKVX
  GI50: 93.8 µM (inactive)
HCC 2998
  GI50: > 100 µM (inactive)
HCT-116
  GI50: > 100 µM (inactive)
HCT-15
  GI50: > 100 µM
HOP-62
  GI50: > 100 µM (inactive)
HOP-92
  GI50: 63.7 µM (inactive)
HT-29
  GI50: > 100 µM (inactive)
IGROV-1
  GI50: > 100 µM (inactive)
K562
  GI50: > 100 µM (inactive)
KM-20L2
  GI50: > 100 µM (inactive)
KM12
  GI50: > 100 µM (inactive)
LOX IMVI
  GI50: > 100 µM (inactive)
LXFL 529
  GI50: > 100 µM (inactive)
M14
  GI50: > 100 µM (inactive)
M19-MEL
  GI50: > 100 µM (inactive)
MOLT-4
  GI50: > 100 µM (inactive)
Malme-3M
  GI50: > 100 µM (inactive)
NCI-H226
  GI50: 50.1 µM (inactive)
NCI-H23
  GI50: > 100 µM (inactive)
NCI-H460
  GI50: > 100 µM (inactive)
NCI-H522
  GI50: 66.1 µM (inactive)
OVCAR-3
  GI50: > 100 µM (inactive)
OVCAR-4
  GI50: > 100 µM (inactive)
OVCAR-5
  GI50: > 100 µM (inactive)
OVCAR-8
  GI50: > 100 µM (inactive)
RPMI-8226
  GI50: > 100 µM (inactive)
RXF 393
  GI50: > 100 µM (inactive)
RXF 631
  GI50: > 100 µM (inactive)
SF-268
  GI50: > 100 µM (inactive)
SF-295
  GI50: > 100 µM (inactive)
SF-539
  GI50: 69.8 µM (inactive)
SK-MEL-28
  GI50: > 100 µM (inactive)
SK-MEL-2
  GI50: > 100 µM (inactive)
SK-MEL-5
  GI50: > 100 µM (inactive)
SK-OV-3
  GI50: > 100 µM (inactive)
SN12C
  GI50: > 100 µM (inactive)
SNB-19
  GI50: > 100 µM (inactive)
SNB-75
  GI50: 57.5 µM (inactive)
SNB-78
  GI50: > 100 µM (inactive)
SW-620
  GI50: > 100 µM (inactive)
TK-10
  GI50: > 100 µM (inactive)
U-251
  GI50: > 100 µM (inactive)
UACC-257
  GI50: > 100 µM (inactive)
UACC-62
  GI50: > 100 µM (inactive)
UO-31
  GI50: 49.3 µM (inactive)
XF498
  GI50: > 100 µM (inactive)
